Experiment [1] has as its target T1, Transketolase from cell extract (Homo sapiens, UniProt P29401).
T1 construct: approximately 300 µg of protein cell extract used for the determination of transketolase enzyme activity; endogenous in cells; host or cells: Cultured cells
T1 sequence (P29401 1-623): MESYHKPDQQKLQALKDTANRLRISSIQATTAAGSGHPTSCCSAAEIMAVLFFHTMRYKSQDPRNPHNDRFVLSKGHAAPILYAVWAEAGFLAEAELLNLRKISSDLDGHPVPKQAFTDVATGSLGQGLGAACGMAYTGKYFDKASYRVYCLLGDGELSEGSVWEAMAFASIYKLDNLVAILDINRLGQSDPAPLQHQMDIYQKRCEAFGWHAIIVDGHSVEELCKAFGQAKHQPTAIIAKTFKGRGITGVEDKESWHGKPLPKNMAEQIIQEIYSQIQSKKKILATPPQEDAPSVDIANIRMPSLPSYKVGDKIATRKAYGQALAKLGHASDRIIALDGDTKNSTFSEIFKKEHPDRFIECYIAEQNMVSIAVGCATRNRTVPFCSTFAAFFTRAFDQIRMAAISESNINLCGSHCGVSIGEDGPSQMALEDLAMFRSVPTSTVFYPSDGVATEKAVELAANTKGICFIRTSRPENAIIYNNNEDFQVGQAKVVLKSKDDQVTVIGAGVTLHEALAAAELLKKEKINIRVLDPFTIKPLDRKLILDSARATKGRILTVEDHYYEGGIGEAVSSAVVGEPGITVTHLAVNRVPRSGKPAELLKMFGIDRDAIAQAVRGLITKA
Nature of the experiment: Transketolase activity in cell extract (enzyme-linked NADH oxidation, spectrophotometric/fluorimetric). The class given is biochemical. The conditions noted are these: for inhibitory activity class (Figure 2): Figure 2 grouping. How it is done:
Cell cultures were washed with PBS, detached from the flasks using 0.025% trypsin-EDTA and then resuspended in lysis buffer (1 mM dithiothreitol, 1 mM EDTA, 0.02% Triton X-100, 0.02% sodium deoxycholate, 0.2 mM phenylmethylsulfonyl fluoride, 1% sodium azide and 20 mM Tris-HCl, pH 7.5). Cells were homogenized using a laboratory sonicator (1/2 Liter Branson 200 Ultrasonic bath, 5 min, 40 kHz, 4°C) and immediately ultracentrifuged at 105000×g for 1 hour at 4°C. The supernatant was separated and approximately 300 µg of protein cell extract used for the determination of transketolase enzyme activity using a Cobas Mira Plus chemistry analyzer (HORIBA ABX, Montpellier, France) or a spectrofluorimeter Kontron SFM-25 (Bio-Tek Instruments, VT, United States).
Transketolase (EC 2.2.1.1) activity was determined using the enzyme linked method described by Smeets and colleagues. Briefly, cell extract and inhibitors were added to a cuvette containing 5 mM MgCl2, 0.2 U×mL^−1 glycerophsphate dehydrogenase-triosephosphate isomerase (from rabbit muscle), 0.2 mM NADH, 0.1 mM thiamine pyrophosphate (TPP) and 50 mM Tris-HCl, pH 7.6 at 37°C. The reaction was initiated by the addition of 300 µL substrate mixture (see below) per mL of cuvette volume. The oxidation of NADH, which is directly proportional to transketolase activity, was followed by the decrease in absorbance at 340 nm (spectrophotometric method) or in fluorescence at 450 nm when excited at 330 nm (fluorimetric method) before and after the addition of the different compounds tested. A blank with all the assay components but the sample was performed in each experiment by measuring the oxidation of NADH. The substrate mixture was prepared by dissolving 50 mM ribose-5-phosphate in 50 mM Tris-HCl, pH 7.6, and adding 0.05 IU ribulose-5-phosphate-3-epimerase (from baker's yeast) and 0.25 IU phosphoriboisomerase (from spinach). The substrate mixture was continuously stirred and heated for 1 hour at 37°C and then kept at −20°C until use.
Protein concentration of cell extracts was determined using the BCA Protein Assay (Pierce Biotechnology, Rockford, IL) to calculate the specific activity of the transketolase enzyme.

Another experiment relates to HT29 cells. Nature of the experiment: MTT cell viability assay, HT29. Format: cell-based, human. How it is done: (§1) HCT116 human colon carcinoma cells (gift from Dr Capellà, Institut Català d'Oncologia, Barcelona, Spain) were grown in DMEM∶HAM F12 (1∶1), supplemented with 10% heat-inactivated foetal calf serum (FCS) (PAA Laboratories, Pasching, Austria), L-glutamine (2 mM), pyruvic acid (1 mM), non-essential aminoacids (1%) and antibiotics: 100 U×mL^−1 penicillin and 100 µg×mL^−1 streptomycin. HT29 human colon adenocarcinoma cells (obtained from the American Type Culture Collection -ATCC-) were grown in Dulbecco's Modified Eagle's Medium, 25 mM D-glucose, 4 mM L-glutamine supplemented with 10% heat-inactivated FCS, and antibiotics: 100 U×mL^−1 penicillin and 100 µg×mL^−1 streptomycin (Invitrogen, Paisley, UK). All cell cultures were carried out at 37°C in a humidified atmosphere with 5% CO2. Subconfluent monolayers of cells were used in all experiments.
(§2) Cell viability was determined using the MTT assay, which is based on the ability of live cells to cleave the tetrazolium ring, thus producing formazan, which absorbs at 570 nm. 5000 cells/well HT29 cells or 1700 cells/well HCT116 cells were seeded into 96-well plates and incubated for 24 h prior to the addition of the different compounds at different concentrations, in triplicate. After incubation for 72 h, the supernatant was aspirated and 100 µL of filtered MTT (0.5 mg/mL) was added to each well. Following 1 h of incubation, the supernatant was removed and the formazan precipitated was dissolved in DMSO. Relative cell viability was measured by absorbance at 550 nm on an ELISA plate reader (Tecan Sunrise MR20-301, TECAN, Austria). Concentrations that inhibited cell growth by 50% (IC50) after treatment were determined.
For orientation: Tetrazolium assays rely on reduction of a dye to a coloured formazan, in cell work by metabolically active cells.

The next experiment deals with HCT116 cells. The experiment can be described thus: MTT cell viability assay, HCT116. Format: cell-based, human. How it is done:
as §1, §2

Where [2] appears, read: Homo sapiens, HT-29, 72 h incubation, read-out: IC50 Cell viability (HT29 cells).
Setting [3] is: Homo sapiens, HCT-116, 72 h incubation, read-out: IC50 Cell viability (HCT116 cells).

Where two headings read alike, the source gives them in different places. Bounds are passed on as bounds.

Broadly, the IC50 is the midpoint of a concentration-inhibition curve.

Take `Cc1ccc([N+](=O)[O-])cc1NC(=O)Nc1cccc2c(O)cccc12` [T2A]: the values for the IC50 (in experiment [1]; in the experiment with HT29 cells (setting [2]); in the experiment with HCT116 cells (setting [3])) were 150 µM, 15 µM and 17 µM, respectively. Moreover, the “inhibitory activity class (Figure 2)” value in experiment [1] is “Actives”.

For `O=C(Nc1ccccc1)Nc1cc(Cl)c([N+](=O)[O-])cc1O` [T2B], the “inhibitory activity class (Figure 2)” value in experiment [1] is “Actives”. Also, the IC50 in experiment [1] (cell extract, compound concentration varied 50 to 300 µM, read-out: IC50 Transketolase from cell extract) is 100 µM; with HT29 cells (setting [2]), 6 µM; in the experiment on HCT116 cells (setting [3]) it was 12 µM.

Consider `Cc1c(Cl)cccc1NC(=O)Nc1ccc(CC(=O)O)cc1` [T2C], for which the figures for the IC50 (in experiment [1]; in the experiment on HT29 cells (setting [2]); in the experiment with HCT116 cells (setting [3])) were > 200 µM, 200 µM and 200 µM, respectively. For the same compound, the “inhibitory activity class (Figure 2)” value in experiment [1] was “Inactives”. Further, in experiment [1] (cell extract), the “transketolase inhibition in the enzymatic assay (in words)” value (shortened to “transketolase inhibition”) was “inactive”.

Consider `CCc1ccc(NC(=O)Nc2cccc([N+](=O)[O-])c2)c(CC)c1` [T2D], for which the half-inhibitory concentration (IC50) (in experiment [1]; with HT29 cells (setting [2]); with HCT116 cells (setting [3])) was > 200 µM each time. In addition, the “inhibitory activity class (Figure 2)” value in experiment [1] is listed as “Inactives”. For the same compound, in experiment [1] (cell extract), the “transketolase inhibition” value is “no inhibition of transketolase”.

`O=[N+]([O-])c1cccc(NC(=S)Nc2cc(Cl)ccc2O)c1` [T2E]: the values for the half-inhibitory concentration (IC50) (in experiment [1]; with HT29 cells (setting [2]); in the experiment with HCT116 cells (setting [3])) were > 200 µM, 20 µM and 13 µM, respectively. Besides, the “inhibitory activity class (Figure 2)” value in experiment [1] is on record as “Inactives”. In addition, the “transketolase inhibition” value in experiment [1] (cell extract) was “poorly active”.

As for `Cc1c(Cl)cccc1NC(=O)Nc1cccc(O)c1` [T2F], in experiment [1], the IC50 was > 200 µM and the “inhibitory activity class (Figure 2)” value is listed as “Inactives”. In addition, in experiment [1] (cell extract), the “transketolase inhibition” value is “no activity”.

Consider `Cc1c(Cl)cccc1NC(=O)Nc1cc([N+](=O)[O-])ccc1O` [T2], for which the values for the IC50 (in experiment [1]; in the experiment on HT29 cells (setting [2]); in the experiment with HCT116 cells (setting [3])) were 200 µM, 10 µM and 9 µM, respectively. Further, in experiment [1], the “inhibitory activity class (Figure 2)” value is “Actives”.

Turning to `Cc1ncc(C[n+]2csc(CCO)c2C)c(=O)[nH]1` [oxythiamine, reference compound], the IC50 in the experiment on HT29 cells (72 h incubation, read-out: IC50 cell viability (HT29)) stood at 8000 µM; in the experiment with HCT116 cells (72 h incubation, read-out: IC50 cell viability (HCT116)) it was 8000 µM.
